{"source": "patent US20080014211A1", "about": "“Methods to elicit, enhance and sustain immune responses against MHC class I-restricted epitopes, for prophylactic and therapeutic purposes” (priority 2006, published 2008)", "key": {"[1]": {"system": "CD4+CD25+Fox P3+ T-regulatory cells", "conditions": "tumor bearing mice, one injection 100 mg/kg on Day 46, spleens day 49; p=0.02", "protocol": "Control mice received either poyIC or saline.\nMice received one injection of cyclophosphamide (CTX, 100 mg/kg) on days 46 […]. On day 49, spleens were removed from 3 mice in each group and the percentage of CD25^+ and Fox P3^+ cells were calculated within the total CD4^+ population (FIG. 6)."}, "[2]": {"system": "HPV-16 transformed tumor cells", "assay": "Adjunctive therapy in late stage cancer, tumor progression (Example 10)", "type": "in vivo, C57BL/6 mice", "conditions": "CTX 30 mg/kg Day 14, 18, immunization Day 20, 24, 34, 38, n=20", "description": "Tumor progression (FIG. 11, Panel A) and immune response (FIG. 11, Panel B) was compared to untreated tumor control mice (n=20)."}, "[3]": {"system": "HPV-16 transformed tumor cells", "assay": "Adjunctive therapy, survival (Kaplan-Meier) (Example 11)", "type": "in vivo, C57BL/6 mice", "conditions": "two therapeutic cycles; Kaplan-Meier estimates; n=20", "quoted_text": "The effect of adjunctive therapy on survival was also evaluated in C57BL/6 mice inoculated with 10^5 HPV-16 transformed tumor cells as described in Example 10. A second therapeutic cycle was administered in which animals received CTX (30 mg/kg) on Day 46 and 50 (n=20), immunization with E749-57 HPV peptide and dsRNA (25 μg/Day) in bilateral inguinal lymph nodes on Day 52, 56, 65, and 69 (n=20), or were treated with a combination of CTX and immunotherapy (n=20). Kaplan-Meier (product-limit) estimates of the survival function were obtained for each of the four conditions (Control, CTX Only, Immunotherapy Only and CTX/Immunotherapy Combined), as shown in FIG. 12. Log-Rank tests were used to compare the four survival curves."}, "[4]": {"system": "HPV-16 transformed tumor cells", "assay": "Adjuvant efficacy: immunotherapy after primary tumor removal (Example 13)", "type": "in vivo, C57BL/6 mice", "protocol": "A separate cohort is left untreated and tumors are removed at day 20 using surgery or irradiated using conventional radiotherapy. […] Additional control arms are treated with CTX, radiotherapy or surgery but not immunized."}, "[5]": {"system": "HPV-16 transformed tumor cells", "assay": "Neoadjuvant efficacy: immunotherapy prior to primary tumor treatment (Example 14)", "type": "in vivo, C57BL/6 mice", "protocol": "Then mice are treated with CTX (100 mg/kg) starting on day 30 or by radiotherapy, every other day until the animals reach complete remission (FIG. 15). A separate cohort has the tumor removed on day 30 but no treatment with CTX. The animals are then observed for tumor relapse."}, "[6]": {"system": "HPV-16 transformed tumor cells", "assay": "Consolidation therapy: immunotherapy post chemotherapy (Example 15)", "type": "in vivo, C57BL/6 mice", "conditions": "CTX 100 or 30 mg/kg on days 14 and 16", "protocol": "The animals are rested for 7 days until the number of lymphocytes in the blood reaches normal levels. At that point, all animals show reduced disease or complete remission relative to pre-treatment stage. […] Additional control arms are treated with CTX or radiotherapy but not immunized."}, "[7]": {"system": "CD4+/CD25+/FoxP3+ T regulatory cells", "conditions": "intraperitoneal 100 mg/kg; mice bearing HPV-16 transformed tumors"}, "[8]": {"system": "HPV-16 transformed tumor cells", "assay": "Adjunctive therapy: immunotherapy accompanying chemotherapy (Example 16)", "conditions": "CTX 100 or 30 mg/kg on days 14 and 16", "quoted_text": "C57BL/6 mice are inoculated subcutaneously with 10^5 HPV-16 transformed tumor cells on Day 0, and treated with CTX (100 or 30 mg/kg) on days 14 and 16 or treated by radiotherapy. […] Additional control arms are treated with CTX but not immunized."}}}
{"smiles": "O=P1(N(CCCl)CCCl)NCCCO1", "note": "(centres unmarked) [cyclophosphamide]", "values": [{"measurement": "levels of T-regulatory cells (CD25+ Fox P3+ within total CD4+) in spleen", "setting": "[1]", "result": "significantly reduced levels"}, {"measurement": "tumor regression compared to untreated tumor controls", "setting": "[2]", "result": "did not significantly induce tumor regression"}, {"measurement": "median survival time", "setting": "[3]", "result": 68, "unit": "days"}, {"measurement": "remission after primary treatment", "setting": "[4]; CTX 100 mg/kg from day 14 every other day", "result": "attain complete remission"}, {"measurement": "relapse without follow up immunotherapy", "setting": "[4]; after complete remission", "result": "relapse in a significant number"}, {"measurement": "remission in unimmunized animals", "setting": "[5]; CTX 100 mg/kg from day 30 every other day", "result": "attain partial or complete remission"}, {"measurement": "relapse in unimmunized animals", "setting": "[5]; after CTX, radiotherapy or surgery", "result": "relapse in a significant number"}, {"measurement": "remission after treatment", "setting": "[6]", "result": "attain partial remission or complete remission within 10 days after treatment"}, {"measurement": "level of T-regs in spleen", "setting": "[7]", "result": "reduced"}, {"measurement": "level of T-regs in the tumor", "setting": "[7]", "result": "reduced"}, {"measurement": "remission after CTX treatment", "setting": "[8]", "result": "attain partial remission or complete remission within 20 days after CTX treatment"}]}
